Read-outs that look alike come from different tables or passages of the source.
Columns and labels:
Assay in all cases: Determination of MIC values (BHI broth, 96 well microtiter plate)
Format in all cases: cell-based
[1] = test system: Streptococcus pneumoniae; details: Streptococcus pneumoniae, BHI broth, read-out: MIC S. pneu
Procedure, shortened: (§1)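 Broth microdilution in Brain-Heart Infusion with twofold dilution series from 25 µg/mL final and a no-compound control. Overnight incubation at 37° C in a CO2 atmosphere; visual growth endpoint gives the MIC.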

[2] = test system: methicillin-resistant Staphylococcus aureus (MRSA); details: Staphylococcus aureus, MRSA, BHI broth, read-out: MIC MRSA
Procedure, shortened: as §1

[3] = test system: vancomycin-resistant Enterococcus spp. (VRE); details: Enterococcus, VRE, BHI broth, read-out: MIC VREF
Procedure, shortened: as §1

[4] = 37° C., overnight (about 16 hours)
[5] = 16 h, 37° C., overnight (about 16 hours)

## NCc1ccc(CNC(=O)c2cc(-c3c[nH]c4ccc(Br)cc34)nc3ccc(C#CCNCCc4ccc(Cl)cc4)cc23)cc1 [Example 235]
[1]; S. pneu, overnight 37° C.
  MIC: < 7 µg/mL
[2]; overnight 37° C.
  MIC: < 7 µg/mL
[3]; VREF, overnight 37° C.
  MIC: < 7 µg/mL

## Cc1cccc2c(-c3ccc4cc(Cl)ccc4n3)c[nH]c12 [Example 199]
[1]; [4]
  MIC: > 25 µg/mL
[2]; [5]
  MIC: > 25 µg/mL
[3]; [5]
  MIC: > 25 µg/mL

## CN1CCN(CC#Cc2ccc3nc(-c4cn(C)c5ccc(Br)cc45)cc(C(=O)NCCN)c3c2)CC1 [Example 405]
[1]; 37° C., about 16 hours
  MIC: < 25 µg/mL
[2]; 16 h, 37° C., about 16 hours
  MIC: < 25 µg/mL
[3]; 16 h, 37° C., about 16 hours
  MIC: < 25 µg/mL

## OCc1cc(-c2c[nH]c3ccc(Br)cc23)nc2ccc(Br)cc12 [Example 445]
[1]; 37° C., about 16 hours
  MIC: < 7 µg/mL
[2]; 16 h, 37° C., about 16 hours
  MIC: < 7 µg/mL
[3]; 16 h, 37° C., about 16 hours
  MIC: < 7 µg/mL

## Cc1ccc2nc(-c3c(C)[nH]c4ccccc34)ccc2c1 [Example 466]
[1]; 37° C., about 16 hours
  MIC: < 25 µg/mL
[2]; 16 h, 37° C., about 16 hours
  MIC: > 25 µg/mL
[3]; 16 h, 37° C., about 16 hours
  MIC: > 25 µg/mL

## O=C(O)c1ccc2[nH]cc(-c3cc(C(=O)O)c4ccccc4n3)c2c1 [Example 76]
[1]; [4]
  MIC: > 25 µg/mL
[2]; [5]
  MIC: > 25 µg/mL
[3]; [5]
  MIC: > 25 µg/mL

## NCC1CCC(CNC(=O)c2cc(-c3c[nH]c4ccc(Br)cc34)nc3cc(I)ccc23)CC1 (stereo not drawn) [Example 251]
[1]; S. pneu, overnight 37° C.
  MIC: < 7 µg/mL
[2]; overnight 37° C.
  MIC: < 7 µg/mL
[3]; VREF, overnight 37° C.
  MIC: < 7 µg/mL

## NCc1ccc(CNC(=O)c2cc(-c3c[nH]c4ccc(Cl)cc34)nc3ccc(I)cc23)cc1 [Example 224]
[1]; S. pneu, overnight 37° C.
  MIC: < 7 µg/mL
[2]; overnight 37° C.
  MIC: < 7 µg/mL
[3]; VREF, overnight 37° C.
  MIC: < 7 µg/mL

## CN(C)CCN(C)C(=O)c1cc(-c2c[nH]c3ccc(Br)cc23)nc2ccc(I)cc12 [Example 499]
[1]; 37° C., about 16 hours
  MIC: < 7 µg/mL
[2]; 16 h, 37° C., about 16 hours
  MIC: < 7 µg/mL
[3]; 16 h, 37° C., about 16 hours
  MIC: < 7 µg/mL

## Clc1ccc2nc(-c3c[nH]c4ccccc34)ccc2c1 [Example 164]
[1]; [4]
  MIC: < 7 µg/mL
[2]; [5]
  MIC: < 7 µg/mL
[3]; [5]
  MIC: < 5 µg/mL

## NCc1cccc(CNC(=O)c2cc(-c3c[nH]c4ccc(Br)cc34)nc3ccc(C#CCN4CCCC4)cc23)c1 [Example 242]
[1]; S. pneu, overnight 37° C.
  MIC: < 7 µg/mL
[2]; overnight 37° C.
  MIC: < 7 µg/mL
[3]; VREF, overnight 37° C.
  MIC: < 25 µg/mL

## Cc1ccc2[nH]c(C)c(-c3ccc4cccc(C)c4n3)c2c1 [Example 426]
[1]; 37° C., about 16 hours
  MIC: < 25 µg/mL
[2]; 16 h, 37° C., about 16 hours
  MIC: < 25 µg/mL
[3]; 16 h, 37° C., about 16 hours
  MIC: > 25 µg/mL

## NCc1cccc(CNC(=O)c2cc(-c3c[nH]c4ccc(Br)cc34)nc3ccc(Cl)cc23)c1 [Example 134]
[1]; [4]
  MIC: < 7 µg/mL
[2]; [5]
  MIC: < 7 µg/mL
[3]; [5]
  MIC: < 7 µg/mL

## NCCNC(=O)c1cc(-c2c[nH]c3ccc(Br)cc23)nc2ccc(C#CCO)cc12 [Example 523]
[1]; 37° C., about 16 hours
  MIC: < 7 µg/mL
[2]; 16 h, 37° C., about 16 hours
  MIC: < 7 µg/mL
[3]; 16 h, 37° C., about 16 hours
  MIC: < 7 µg/mL

## NC1CCCCC1NC(=O)c1cc(-c2c[nH]c3ccc(Br)cc23)nc2c(Cl)c(Cl)ccc12 (stereo not drawn) [Example 280]
[1]; S. pneu, overnight 37° C.
  MIC: < 7 µg/mL
[2]; overnight 37° C.
  MIC: < 7 µg/mL
[3]; VREF, overnight 37° C.
  MIC: < 7 µg/mL

## NCc1ccc(CNC(=O)c2cc(-c3c[nH]c4ccc(Br)cc34)nc3cc(I)ccc23)cc1 [Example 249]
[1]; S. pneu, overnight 37° C.
  MIC: < 7 µg/mL
[2]; overnight 37° C.
  MIC: < 7 µg/mL
[3]; VREF, overnight 37° C.
  MIC: < 7 µg/mL

## CN(CC[N+](C)(C)C)C(=O)c1cc(-c2c[nH]c3ccc(Br)cc23)nc2cc(Cl)ccc12 [Example 520]
[1]; 37° C., about 16 hours
  MIC: < 7 µg/mL
[2]; 16 h, 37° C., about 16 hours
  MIC: < 7 µg/mL
[3]; 16 h, 37° C., about 16 hours
  MIC: < 7 µg/mL

## NCc1ccc(CNC(=O)c2cc(-c3c[nH]c4c(Cl)cccc34)nc3ccccc23)cc1 [Example 260]
[1]; S. pneu, overnight 37° C.
  MIC: < 25 µg/mL
[2]; overnight 37° C.
  MIC: < 25 µg/mL
[3]; VREF, overnight 37° C.
  MIC: < 25 µg/mL

## O=C(c1cc(-c2c[nH]c3ccc(Br)cc23)nc2ccc(I)cc12)N1CCCNCC1 [Example 117]
[1]; [4]
  MIC: < 7 µg/mL
[2]; [5]
  MIC: < 7 µg/mL
[3]; [5]
  MIC: < 7 µg/mL

## COc1ccc2[nH]cc(-c3ccc4cc(Cl)ccc4n3)c2c1 [Example 290]
[1]; S. pneu, overnight 37° C.
  MIC: > 25 µg/mL
[2]; overnight 37° C.
  MIC: > 25 µg/mL
[3]; VREF, overnight 37° C.
  MIC: > 25 µg/mL

## Cn1cc(-c2cc(C(=O)NC3CCC(N)CC3)c3cc(Cl)ccc3n2)c2cc(Br)ccc21 (stereo not drawn) [Example 371]
[1]; S. pneu, overnight 37° C.
  MIC: < 7 µg/mL
[2]; overnight 37° C.
  MIC: < 7 µg/mL
[3]; VREF, overnight 37° C.
  MIC: < 7 µg/mL

## NCc1ccc(CNC(=O)c2cc(-c3c[nH]c4ccc(Br)cc34)nc3ccccc23)cc1 [Example 283]
[1]; S. pneu, overnight 37° C.
  MIC: < 7 µg/mL
[2]; overnight 37° C.
  MIC: < 7 µg/mL
[3]; VREF, overnight 37° C.
  MIC: < 7 µg/mL

## CC(C)(C)OC(=O)n1cc(-c2ccc3cc(I)ccc3n2)c2cc(Br)ccc21 [Example 362]
[1]; S. pneu, overnight 37° C.
  MIC: > 25 µg/mL
[2]; overnight 37° C.
  MIC: > 25 µg/mL
[3]; VREF, overnight 37° C.
  MIC: > 25 µg/mL

## NCCCNC(=O)c1cc(-c2c[nH]c3cc(F)ccc23)nc2cc(F)ccc12 [Example 495]
[1]; 37° C., about 16 hours
  MIC: < 25 µg/mL
[2]; 16 h, 37° C., about 16 hours
  MIC: < 25 µg/mL
[3]; 16 h, 37° C., about 16 hours
  MIC: > 25 µg/mL

## O=[N+]([O-])c1cccc2nc(-c3c[nH]c4ccc(Br)cc34)ccc12 [Example 387]
[1]; S. pneu, overnight 37° C.
  MIC: > 25 µg/mL
[2]; overnight 37° C.
  MIC: > 25 µg/mL
[3]; VREF, overnight 37° C.
  MIC: > 25 µg/mL

## O=[N+]([O-])c1cccc2nc(-c3c[nH]c4ccc(Cl)cc34)ccc12 [Example 385]
[1]; S. pneu, overnight 37° C.
  MIC: > 25 µg/mL
[2]; overnight 37° C.
  MIC: > 25 µg/mL
[3]; VREF, overnight 37° C.
  MIC: > 25 µg/mL

## Clc1ccc2[nH]cc(-c3ccc4ccccc4n3)c2c1 [Example 168]
[1]; [4]
  MIC: < 7 µg/mL
[2]; [5]
  MIC: < 7 µg/mL
[3]; [5]
  MIC: > 25 µg/mL

From US6376670B1, “Quinoline-indole antimicrobial agents, uses and compositions related thereto” (Sepracor Inc., priority 1997, dated 2002)
